Experimental data published in the NIST ThermoML archive (doi:10.1016/j.fluid.2014.04.018).
Values joined by “and” are separate entries in the source; they are usually repeats but may differ in a detail not shown here. Equal entries are not always repeated. ± gives the expanded uncertainty stated by the source.

Settings: Liquid, Vibrating tube method

CCCOC(=O)CCCCC(=O)OCCC [dipropyl hexanedioate]
Settings	mass density
293.15 K, 100 kPa	979.3 ± 3.9 kg/m3
293.15 K, 520 kPa	979.7 ± 3.9 kg/m3
293.15 K, 1040 kPa	980 ± 3.9 kg/m3
293.15 K, 2530 kPa	981 ± 3.9 kg/m3
293.15 K, 5020 kPa	982.5 ± 3.9 kg/m3
293.15 K, 7510 kPa	984.1 ± 3.9 kg/m3
293.15 K, 7530 kPa	984.2 ± 3.9 kg/m3
293.15 K, 10010 kPa	985.7 ± 4 kg/m3
293.15 K, 15050 kPa	988.9 ± 4 kg/m3
293.15 K, 20010 kPa	991.8 ± 4 kg/m3
293.15 K, 30030 kPa	997.7 ± 4 kg/m3
293.15 K, 39800 kPa	1003.1 ± 4 kg/m3
293.15 K, 50070 kPa	1008.4 ± 4 kg/m3
293.15 K, 65000 kPa	1015.7 ± 4.1 kg/m3
303.15 K, 100 kPa	970.4 ± 3.9 kg/m3 and 970.3 ± 3.9 kg/m3
303.15 K, 500 kPa	970.7 ± 3.9 kg/m3
303.15 K, 510 kPa	970.7 ± 3.9 kg/m3
303.15 K, 1010 kPa	971.1 ± 3.9 kg/m3
303.15 K, 2510 kPa	972.1 ± 3.9 kg/m3
303.15 K, 5000 kPa	973.8 ± 3.9 kg/m3
303.15 K, 5030 kPa	973.8 ± 3.9 kg/m3
303.15 K, 7510 kPa	975.5 ± 3.9 kg/m3
303.15 K, 10010 kPa	977.1 ± 3.9 kg/m3
303.15 K, 10020 kPa	977.1 ± 3.9 kg/m3
303.15 K, 15010 kPa	980.4 ± 3.9 kg/m3
303.15 K, 20000 kPa	983.5 ± 3.9 kg/m3
303.15 K, 30000 kPa	989.6 ± 4 kg/m3
303.15 K, 30010 kPa	989.6 ± 4 kg/m3
303.15 K, 39800 kPa	995.2 ± 4 kg/m3
303.15 K, 50010 kPa	1000.7 ± 4 kg/m3
303.15 K, 64990 kPa	1008.3 ± 4 kg/m3
303.15 K, 65010 kPa	1008.3 ± 4 kg/m3
313.15 K, 100 kPa	961.5 ± 3.9 kg/m3
313.15 K, 500 kPa	961.8 ± 3.9 kg/m3
313.15 K, 1010 kPa	962.2 ± 3.9 kg/m3
313.15 K, 2510 kPa	963.3 ± 3.9 kg/m3
313.15 K, 5040 kPa	965.1 ± 3.9 kg/m3
313.15 K, 7510 kPa	966.8 ± 3.9 kg/m3
313.15 K, 10010 kPa	968.5 ± 3.9 kg/m3
313.15 K, 15000 kPa	971.9 ± 3.9 kg/m3
313.15 K, 19980 kPa	975.2 ± 3.9 kg/m3
313.15 K, 30000 kPa	981.6 ± 3.9 kg/m3
313.15 K, 39800 kPa	987.4 ± 4 kg/m3
313.15 K, 39810 kPa	987.4 ± 4 kg/m3
313.15 K, 50060 kPa	993.2 ± 4 kg/m3
313.15 K, 65000 kPa	1001 ± 4 kg/m3
323.15 K, 100 kPa	952.4 ± 3.8 kg/m3
323.15 K, 500 kPa	952.8 ± 3.8 kg/m3
323.15 K, 1010 kPa	953.2 ± 3.8 kg/m3
323.15 K, 2530 kPa	954.3 ± 3.8 kg/m3
323.15 K, 5020 kPa	956.2 ± 3.8 kg/m3
323.15 K, 7510 kPa	958 ± 3.8 kg/m3
323.15 K, 7550 kPa	958.1 ± 3.8 kg/m3
323.15 K, 10000 kPa	959.9 ± 3.8 kg/m3
323.15 K, 15030 kPa	963.4 ± 3.9 kg/m3
323.15 K, 20010 kPa	966.9 ± 3.9 kg/m3
323.15 K, 30010 kPa	973.5 ± 3.9 kg/m3
323.15 K, 39820 kPa	979.5 ± 3.9 kg/m3
323.15 K, 50020 kPa	985.5 ± 4 kg/m3
323.15 K, 64990 kPa	993.7 ± 4 kg/m3
333.15 K, 100 kPa	943.5 ± 3.8 kg/m3
333.15 K, 500 kPa	943.9 ± 3.8 kg/m3
333.15 K, 1020 kPa	944.3 ± 3.8 kg/m3
333.15 K, 2520 kPa	945.5 ± 3.8 kg/m3
333.15 K, 5010 kPa	947.5 ± 3.8 kg/m3
333.15 K, 7510 kPa	949.4 ± 3.8 kg/m3
333.15 K, 10000 kPa	951.3 ± 3.8 kg/m3
333.15 K, 15000 kPa	955.1 ± 3.8 kg/m3
333.15 K, 20000 kPa	958.7 ± 3.8 kg/m3
333.15 K, 30020 kPa	965.6 ± 3.9 kg/m3
333.15 K, 39790 kPa	971.9 ± 3.9 kg/m3
333.15 K, 50050 kPa	978.1 ± 3.9 kg/m3
333.15 K, 65000 kPa	986.5 ± 4 kg/m3
343.15 K, 100 kPa	934.6 ± 3.7 kg/m3
343.15 K, 520 kPa	935 ± 3.8 kg/m3
343.15 K, 1040 kPa	935.5 ± 3.8 kg/m3
343.15 K, 2540 kPa	936.7 ± 3.8 kg/m3
343.15 K, 5020 kPa	938.8 ± 3.8 kg/m3
343.15 K, 7510 kPa	940.8 ± 3.8 kg/m3
343.15 K, 7520 kPa	940.8 ± 3.8 kg/m3
343.15 K, 10020 kPa	942.8 ± 3.8 kg/m3
343.15 K, 15000 kPa	946.7 ± 3.8 kg/m3
343.15 K, 20030 kPa	950.6 ± 3.8 kg/m3
343.15 K, 29580 kPa	957.4 ± 3.8 kg/m3
343.15 K, 39860 kPa	964.3 ± 3.9 kg/m3
343.15 K, 50020 kPa	970.7 ± 3.9 kg/m3
343.15 K, 65000 kPa	979.4 ± 3.9 kg/m3
353.15 K, 100 kPa	925.7 ± 3.7 kg/m3
353.15 K, 510 kPa	926.1 ± 3.7 kg/m3
353.15 K, 1020 kPa	926.5 ± 3.7 kg/m3
353.15 K, 2530 kPa	927.9 ± 3.7 kg/m3
353.15 K, 5020 kPa	930.1 ± 3.7 kg/m3
353.15 K, 7510 kPa	932.2 ± 3.7 kg/m3
353.15 K, 7530 kPa	932.2 ± 3.7 kg/m3
353.15 K, 10000 kPa	934.3 ± 3.7 kg/m3
353.15 K, 14550 kPa	938 ± 3.8 kg/m3
353.15 K, 20020 kPa	942.3 ± 3.8 kg/m3
353.15 K, 30010 kPa	949.8 ± 3.8 kg/m3
353.15 K, 39800 kPa	956.7 ± 3.8 kg/m3
353.15 K, 49990 kPa	963.4 ± 3.9 kg/m3
353.15 K, 64990 kPa	972.4 ± 3.9 kg/m3
363.15 K, 100 kPa	916.7 ± 3.7 kg/m3
363.15 K, 500 kPa	917.2 ± 3.7 kg/m3
363.15 K, 980 kPa	917.6 ± 3.7 kg/m3
363.15 K, 2520 kPa	919.1 ± 3.7 kg/m3
363.15 K, 5000 kPa	921.3 ± 3.7 kg/m3
363.15 K, 7480 kPa	923.6 ± 3.7 kg/m3
363.15 K, 10020 kPa	925.8 ± 3.7 kg/m3
363.15 K, 15020 kPa	930.1 ± 3.7 kg/m3
363.15 K, 20020 kPa	934.2 ± 3.7 kg/m3
363.15 K, 30020 kPa	942 ± 3.8 kg/m3
363.15 K, 39810 kPa	949.1 ± 3.8 kg/m3
363.15 K, 50050 kPa	956.1 ± 3.8 kg/m3
363.15 K, 64970 kPa	965.4 ± 3.9 kg/m3
